The text below walks through data of patent US9045415B2, “Targeting of EWS-FLI1 as anti-tumor therapy” (Georgetown University, priority 2006, dated 2015).

A word on the Kd: it is a measure of binding affinity in units of concentration. Usually IC50 stands for the midpoint of a concentration-inhibition curve.

One experiment deals with T1, recombinant EWS-FLI1 (Homo sapiens, UniProt Q01543+Q01844).
T1 sequence (Q01543 1-452): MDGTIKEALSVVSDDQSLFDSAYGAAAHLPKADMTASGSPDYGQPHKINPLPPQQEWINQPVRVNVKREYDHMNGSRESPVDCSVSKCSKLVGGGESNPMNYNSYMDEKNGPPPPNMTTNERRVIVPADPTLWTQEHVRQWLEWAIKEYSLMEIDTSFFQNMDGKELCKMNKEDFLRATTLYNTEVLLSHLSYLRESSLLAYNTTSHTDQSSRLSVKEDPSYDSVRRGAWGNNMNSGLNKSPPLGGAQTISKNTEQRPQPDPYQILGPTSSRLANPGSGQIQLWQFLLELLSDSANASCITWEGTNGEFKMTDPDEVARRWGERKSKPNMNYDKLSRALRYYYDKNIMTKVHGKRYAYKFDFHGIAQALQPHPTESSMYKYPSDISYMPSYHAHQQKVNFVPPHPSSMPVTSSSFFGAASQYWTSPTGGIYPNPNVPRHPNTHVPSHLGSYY
T1 sequence (Q01844 1-656): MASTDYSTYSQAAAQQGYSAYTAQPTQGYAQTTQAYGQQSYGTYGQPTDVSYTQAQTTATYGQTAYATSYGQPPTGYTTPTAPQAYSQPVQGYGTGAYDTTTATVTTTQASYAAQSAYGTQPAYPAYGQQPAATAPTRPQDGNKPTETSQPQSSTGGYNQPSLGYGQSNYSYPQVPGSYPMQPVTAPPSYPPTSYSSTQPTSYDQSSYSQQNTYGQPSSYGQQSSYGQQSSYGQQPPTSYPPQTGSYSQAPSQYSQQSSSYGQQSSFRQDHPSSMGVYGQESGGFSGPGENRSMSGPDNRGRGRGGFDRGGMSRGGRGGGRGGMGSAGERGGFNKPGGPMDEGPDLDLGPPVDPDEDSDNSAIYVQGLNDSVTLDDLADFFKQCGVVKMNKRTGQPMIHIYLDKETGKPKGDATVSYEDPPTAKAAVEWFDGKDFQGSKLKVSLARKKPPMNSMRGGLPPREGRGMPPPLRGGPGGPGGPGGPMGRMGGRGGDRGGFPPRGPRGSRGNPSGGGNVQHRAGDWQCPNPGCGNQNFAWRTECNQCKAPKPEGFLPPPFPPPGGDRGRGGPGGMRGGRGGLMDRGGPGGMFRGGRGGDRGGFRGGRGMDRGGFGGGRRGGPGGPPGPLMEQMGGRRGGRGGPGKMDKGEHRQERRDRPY
Briefly: Surface plasmon resonance (Biacore) binding to EWS-FLI1. Here is the method: Antp is conjugated to the amino terminal of all peptides used in these studies. Recombinant EWS-FLI1 (MW 55 kDa) was covalently linked to a CM5 chip at a density of 1200 RU, and E9RP (MW 4 kDa) was evaluated for binding. The E9RP analyte concentrations ranged from 0.03-30 μM, and all are shown in duplicate. E9RP bound to EWS-FLI1 with a KD of 4.0 μM.
An assay that will identify whether a peptide can disrupt RHA from interacting with EWS-FLI1 was developed. The Biacore device is a biosensor that utilizes surface plasmon resonance (SPR) to measure the strength of molecular interactions. SPR is the sensitive measurement of […] light based upon alterations of surface characteristics that change with molecules binding to a surface. The Biacore device combines SPR with a microfluidic system.
The KD of E9RP binding to EWS-FLI1 was calculated to be 4.0 μM (FIG. 4).
A surface plasmon resonance assay using the Biacore T100 was established with EWS-FLI1, prepared in our laboratory as previously published (Uren, A., Tcherkasskaya, O. & Toretsky, J. A. Recombinant EWS-FLI1 oncoprotein activates transcription. Biochemistry 43, 13579-13589 (2004)). DNA oligonucleotides were used to quality control the proper conformation of EWS-FLI1 on the surface of a CM5 chip. Small molecules obtained from the Developmental Therapeutics Program of the National Cancer Institute, NIH (http://dtp.nci.nih.gov/branches/dscb/repo_open.html) were prioritized based upon their molecular weight and solubility. An initial screening of molecules was performed at 1 or 10 μM compound, based on solubility. We used a model that compares the actual binding maximum (actual RU) with the theoretical binding maximum (RUtheor). […] Hits (RUactual to RUtheor of 0.7-2.0) were then reviewed by a team of medicinal chemists and those with structural potentials were selected for further study. Selected molecules were tested in vitro in a solution coimmunoprecipitation assay using recombinant EWS-FLI1 and GST-RHA (647-1075).
Background: Surface plasmon resonance follows binding to a sensor surface in real time, without labels.

A further experiment has as its system RHA binding to EWS-FLI1. Briefly: Solution immunoprecipitation of GST-RHA with recombinant EWS-FLI1. Particulars: for binding of GST-RHA (647-1075) to full-length recombinant EWS-FLI1: cell-free assay. Details: species or system human. Here is the method:
E9RP is the peptide region of RHA (E9R; SEQ ID NO: 29) fused to the Penetratin peptide (from the Antennapedia homeodomain; SEQ ID NO: 34). Immunoprecipitation of GST-RHA using recombinant EWS-FLI1 bound to a FLI1 antibody. […] E9RP is the sequence of aa 823-832 of human RHA that were synthesized.
(§1) In FIG. 13A, recombinant EWS-FLI1 was treated with NSC635437 for 30 minutes. GST-RHA (630-1020) was added and the complexes were then precipitated with antibody to EWS-FLI1 and Protein G beads. Resolved complexes showing the immunoprecipitated complex control without compound are in lanes 3 (0.1% DMSO) and 5 (0.01% DMSO). […] ESFT TC32 (◯) and neuroblastoma SK-N-AS (▪) were grown for 72 hours in the continuous presence of NSC635437. Cells were incubated in MTT reagent for 4 hours and the dried precipitate was dissolved isopropanol and the absorbance read at 570 nm. Each cell line was standardized to the growth of the DMSO control.
Protein lysates and immunoprecipitations were performed as previously published (Uren et al (2005)). Recombinant GST-RHA (647-1075) was prepared from crude bacterial extracts without further purification.
Reagents were developed to block RHA binding to EWS-FLI1 since RHA is necessary for optimal EWS-FLI1 activity. The E9R peptide corresponds to amino acids 823 to 832, located in the proximal HA2 region of RHA (FIG. 29A). A cell-free protein interaction assay was developed to test whether E9R peptide inhibits RHA binding to EWS-FLI1. […] It was determined whether disrupted EWS-FLI1/RHA binding inhibited cell growth.

In the next experiment the test system is TC32 cells. Briefly: Monolayer cell growth (MTT or WST), TC32. It is filed as cell-based. The conditions noted are these: for IC50: Homo sapiens, TC-32, 168 h, seven days in culture, read-out: IC50, TC32 cells growing in monolayer. Here is the method: as §1
FIG. 30 provides data to show E9R peptide prevents EWS-FLI1 binding to RHA with specific detrimental effects upon ESFT growth and transformation. […] Scale bar equals 20 μm. […] Only expression of EGFP-E9R in TC71 reduced anchorage independent growth. […] Scale bar equals 20 μm.
FIG. 33 provides data showing YK-4-279 is potent and specific inhibitor of ESFT. […] Cell number was measured by MTT or WST reduction after seven days in culture. […] FIG. 33D cell lines expressing EWS-FLI1 compared to non-EWS-FLI1 malignant cell lines following 3 days in culture to establish the IC50 using WST assay. […] Graph plots level of fluorescence in treated divided by untreated lysate. […] Scale bar equals 200 μm.

[1] abbreviates: FIG. 24 experiment, read-out: KD.
[2] abbreviates: SPR, EWS-FLI1 immobilized on CM5 chip, read-out: KD of binding to EWS-FLI1.

Where “and” joins values, the source holds several entries; their conditions need not be identical. Equal entries are not always repeated. Entries after “also recorded” stand apart in the source; their conditions may differ. Where two headings read alike, the source gives them in different places.

Take `O=C(CC1(O)C(=O)Nc2c(Cl)ccc(Cl)c21)c1ccc(Cl)cc1` (stereo not drawn) [NSC635437, 4,7-Dichloro-3-[2-(4-chlorophenyl)-2-oxoethyl]-3-hydroxyl-1,3-dihydro-2H-indol-2-one]: the Kd on recombinant EWS-FLI1 (setting [1]) is 1210 nM and 2020 nM; on recombinant EWS-FLI1 (setting [2]), 2340 nM and 2000 nM. The “RUactual:RUtheor” value at recombinant EWS-FLI1 (library screening, single concentration) was 0.9. The “RHA binding to EWS-FLI1 in solution binding assay” value with RHA binding to EWS-FLI1 (10 μM) is recorded as “block the binding of RHA to EWS-FLI1”. Besides, the “complex formation compared to DMSO matched controls” value in the experiment with RHA binding to EWS-FLI1 (10 μM and 1 μM, GST-RHA (630-1020)) is listed as “decreased complex formation”. Also, the “binding of GST-RHA (647-1075) to full-length recombinant EWS-FLI1” value in the experiment with RHA binding to EWS-FLI1 is on record as “reduced the direct binding”. Also, the “cell growth (MTT)” value in the experiment on TC32 cells (72 hours continuous presence) is “specifically cytotoxic to ESFT cells; also recorded: reduces ESFT”. Also, the 50% inhibitory concentration (IC50) with TC32 cells came to 20000 nM.
`COc1ccc(C(=O)CC2(O)C(=O)Nc3c(Cl)ccc(Cl)c32)cc1` (stereo not drawn) [YK-4-279, 4,7-Dichloro-3-hydroxy-3-[2-(4-methoxyphenyl)-2-oxoethyl]-1,3-dihydro-2H-indol-2-one]: the Kd on recombinant EWS-FLI1 (setting [1]) is 4560 nM; on recombinant EWS-FLI1 (setting [2]), 9480 nM. Moreover, in the experiment on RHA binding to EWS-FLI1, the “binding of GST-RHA (647-1075) to full-length recombinant EWS-FLI1” value is given as “significantly reduced the protein-protein interaction”. The concentration for half-maximal inhibition (IC50) in the experiment on TC32 cells was 900 nM.
